Laboratory results published in US10307371B2 (AI Therapeutics, Inc., priority 2014, dated 2019).
Where “and” joins values, the source holds several entries; their conditions need not be identical. Equal entries are not always repeated. Entries after “also recorded” stand apart in the source; their conditions may differ.

Legend:
[1] = oral, 12 months, cited from earlier work
[2] = human, cited from earlier work
mTOR = experiment: S6 phosphorylation in mouse lung as biomarker for mTOR activity; details: lung tissue
Description: To validate this approach, we used the presence of phosphorylated S6 protein in murine lung tissue as a biomarker for mTOR activity.

[3] = cited from earlier work
[4] = Observation for adverse effects / clinical signs after OPA or gavage dosing
Description: An additional group of 6 mice received vehicle only (10% ethanol in water). […] At the 72-h necropsy, blood was obtained by cardiac puncture and the lungs removed.
The weight of dose solution administered was determined by weighing the charged syringe with dose solution prior to dosing, and weighing following dosing. […] The time of dosing was recorded as 0. Animals in groups 2 and 3 were euthanized at 1 h after dosing.

renal angiomyolipomas = details: oral, 16 patients, cited from earlier work
[5] = Particle size distribution by laser diffraction after jet milling or wet polishing; type: physicochemical
Description: For jet milling, a lab scale MCOne unit from Jetpharma was used with the following operating conditions: venturi pressure 2-4 bar, milling pressure 3-5 bar, feed rate 90 g/h. For wet polishing, feed suspensions were prepared using purified water. A microfluidics high pressure homogenizer was used for the size reduction step and the resulting suspension was spray-dried. Details of the wet polishing process are set forth below.
The high pressure homogenizer used for the size reduction step of the wet polishing process was a pilot-scale Microfluidics High Pressure Homogenizer equipped with an auxiliary processing module (200 micron) and a 100 micron interaction chamber was used. The unit was operated at ˜455 bar (˜30 bar in the intensifier module hydraulic pressure). After microfluidization the fluid was removed by spray drying to generate a dry powder. A laboratory scale spray dryer, SD45 (BÜCHI, model B-290 Advanced) was equipped with a two fluid nozzle (cap and diameter were 1.4 and 0.7 mm, respectively). Two cyclones in series were used (being the first the standard Buchi cyclone and the second the high-performance Buchi cyclone) to collect the dried product. The spray drying unit was operated with nitrogen and in single pass mode, i.e. without recirculation of the drying nitrogen. The aspirator, blowing nitrogen, was set at 100% of its capacity (flow rate at maximum capacity is approximately 40 kg/h). The flow rate of the atomization nitrogen was adjusted to a value in the rotameter of 40±5 mm. Before feeding the product suspension, the spray dryer was stabilized with purified water, during which the flow rate was adjusted to 6 ml/min (20% in the peristaltic pump). The inlet temperature was adjusted to achieve the target outlet temperature (45° C.). After stabilization of the temperatures, the feed of the spray dryer was commuted from purified water to the product suspension (keeping the same flow rate used during stabilization) and the inlet temperature once again adjusted in order to achieve the target outlet temperature. At the end of the stock suspension, the feed was once more commuted to purified water in order to rinse the feed line and perform a controlled shut down. The dry product in the collection flasks under both cyclones was weighed and the yield calculated as the mass percentage of the dry product in relation to the total solids in the suspension fed to the high pressure homogenizer.
Particle size distribution was analyzed by laser diffraction. Solid state characterization (for polymorphic form and purity) was performed by high pressure liquid chromatography (HPLC), X-ray powder diffraction (XRPD), and differential scanning calorimetry (mDSC). Water content was determined by the Karl Fischer method.

angiomyolipomas = details: oral, 20 patients, cited from earlier work
[6] = Concentration of rapamycin in blood and lung after oropharyngeal aspiration (OPA) or oral gavage, LC-MS/MS; type: in vivo, C57BL/6 mice; details: 1 mg/kg
Description: Each animal was weighed prior to dosing to determine the amount of dose to be administered. A single gavage dose was administered using a 100-μL glass syringe (Hamilton, Reno, Nev.) fitted with a ball-tipped 20-G stainless steel gavage dosing needle (Popper & Sons Inc., New Hyde Park, N.Y.). The dose administered to each animal was determined from the weight of the full syringe minus that of the empty syringe. The dosing time was recorded. Dosing of animals was spaced apart to allow blood collection at the appropriate times. The dose formulations administered to each group are shown below.
Each mouse was anesthetized with isoflurane, and restrained with the mouth open. The tongue was held to one side of the mouth with forceps, and the dose was slowly injected into the distal part of the oral cavity. The nostrils were covered with a finger for two breaths to ensure aspiration (Rao et al., 2003).
Collection of Blood and Lung Samples: At study termination (1 or 72 h after dosing), mice were anesthetized by exposure to CO2, and blood was collected by cardiac puncture with dipotassium EDTA as anticoagulant. Lung tissue was excised and divided into the right and left lung. The left lung was used for analysis, and the right lung flash frozen in liquid nitrogen and stored at −70° C. for further analysis.
Triamcinolone was used as internal standard.
Lung homogenate was prepared by homogenization of weighed lung samples with 2.8-mm ball bearings in a homogenizer with tissue+deionized water (1:3 w/v) in a SPEX SamplePrep 2010 Geno/Grinder.
The concentrations of standards were arranged so that each standard came from an alternate stock standard. A six-point calibration curve, each made in triplicate, was employed for analyte quantitation. A simple linear regression model with or without weighting was employed for curve fitting. The concentration range determined was from 1-2000 ng/mL in blood and 2-2000 ng/mL in lung homogenate.
Thirty (30) μL of matrix, 30 μL of spiking solution (methanol for blanks and samples), 10 μL Internal standard solution (in MeOH) and 90 μL of MeOH were pipetted into microcentrifuge tubes, vortexed briefly, then centrifuged for 6 min at 10,000 RPM at ˜4° C. Aliquots (90 μL) of supernatant were transferred to LC vial inserts, and then analyzed by LC-MS/MS (Table 2).

[7] = study of 10 LAM patients; cited from earlier work
[8] = cancer patients administered temsirolimus or everolimus; cited from earlier work
[9] = Gavage (Rapamune Oral), 1 h post-dose, individual animals
[10] = OPA, 1 h post-dose, individual animals
[11] = OPA, 72 h post-dose, individual animals

## CO[C@H]1C[C@@H]2CC[C@@H](C)[C@@](O)(O2)C(=O)C(=O)N2CCCC[C@H]2C(=O)O[C@H]([C@H](C)C[C@@H]2CC[C@@H](O)[C@H](OC)C2)CC(=O)[C@H](C)/C=C(\C)[C@@H](O)[C@@H](OC)C(=O)[C@H](C)C[C@H](C)/C=C/C=C/C=C/1C [Rapamycin, (3S,6R,7E,9R,10R,12R,14S,15E,17E,19E,21S,23S,26R,27R,34aS)-9,10,12,13, -14,21,22,23,24,25,26,27,32,33,34,34a-hexadecahydro-9,27-dihydroxy-3-[(1R)-2-[(1S,3R,4R)-4-hydroxy-3-methoxycyclohexyl]-1-methylethyl]-10,21-dimethox-y-6,8,12,14,20,26-hexamethyl-23,27-epoxy-3H-pyrido[2,1-c][1,4]oxaazacyclohentriacontine-1,5,11,28,29(4H,6H,31H)-pentone]
[1]; blood levels 5-15 ng/ml
  Lung function: stabilized lung function
  Serum VEGF-D levels: reduced serum VEGF-D levels
[1]
  Blood levels at which patients were maintained: 5 to 15 ng/mL
[2]; Rapamune NDA 21-110 and 21-083
  Volume of distribution: 780 L
[2]; assuming equivalency to rapamycin IV dosing
  Elimination half-life: 42.3 h
mTOR
  Drug level in the lung that substantially abrogates mTOR signaling (pS6): about 70 ng/g
[3]
  Chemical stability of the amorphous form: extremely chemically unstable
[4]; OPA or gavage, 1 mg/kg, up to 72 h after dosing, all groups
  Clinical signs: No significant clinical signs were observed
[4]; OPA, 1 mg/kg, 72 h period following dosing
  Adverse effects: No adverse effects were observed
[4]; relatively high amounts delivered directly to lung (OPA, 1 mg/kg)
  Acute toxicity to lung tissue: not acutely toxic to lung tissue
Renal angiomyolipomas; up to 2 years
  Renal angiomyolipoma response: sustained regression of renal angiomyolipomas
  Steady state blood levels: 3 to 10 ng/mL
Renal angiomyolipomas
  Adverse events: oral mucositis, respiratory infections, and proteinuria
[5]; jet milling
  PSD Dv10: 1.5 μm and 1.51 μm
  PSD Dv50: 2.7 μm and 2.74 μm
  PSD Dv90: 4.9 μm and 4.91 μm
[5]; wet polishing
  PSD Dv10: 1.0 μm and 1.05 μm
  PSD Dv50: 2.4 μm and 2.42 μm
  PSD Dv90: 5.0 μm and 4.97 μm
angiomyolipomas; 24 months
  Serious adverse events: diarrhea, pneumonia, pyelonephritis, cellulitis (from an animal bite), stomatitis, and hemorrhage of a renal angiomyolipoma
angiomyolipomas; during the treatment period
  Angiomyolipoma response: regressed “somewhat”
[6]; [9]
  Blood: 49.85 ng/mL and 11.3 ng/mL and 28.7 ng/mL and 28.35 ng/mL and 2.845 ng/mL and 19.35 ng/mL
  Lung (ng/g tissue): 109.8 ng/g tissue and 24.66 ng/g tissue and 122.8 ng/g tissue and 54 ng/g tissue and <LOQ and 43 ng/g tissue
[6]; [10]
  Blood: 622 ng/mL and 364.5 ng/mL and 937 ng/mL and 848.5 ng/mL and 615.5 ng/mL and 455.5 ng/mL
  Lung (ng/g tissue): 4500 ng/g tissue and 1874 ng/g tissue and 4006 ng/g tissue and 4700 ng/g tissue and 5040 ng/g tissue and 2642 ng/g tissue
[6]; OPA, 72 h post-dose
  Rapamycin in blood, group statement: below the limit of quantitation; also recorded: undetectable
[6]; [11]
  Blood (ng/ml): <ELOQ
  Lung (ng/g tissue): 11.4 ng/g tissue and 15.7 ng/g tissue and 10.8 ng/g tissue and 11.9 ng/g tissue and 13.6 ng/g tissue
[6]; oral (gavage), 72 hrs
  Rapamycin in blood: undetectable
  Rapamycin in lung: undetectable
[7]
  Patients discontinued because of serious recurrent lower respiratory tract infection or sirolimus-induced pneumonitis: 3 patients

## CO[C@H]1C[C@@H]2CC[C@@H](C)[C@@](O)(O2)C(=O)C(=O)N2CCCC[C@H]2C(=O)O[C@H]([C@H](C)C[C@@H]2CC[C@@H](OC(=O)C(C)(CO)CO)[C@H](OC)C2)CC(=O)[C@H](C)/C=C(\C)[C@@H](O)[C@@H](OC)C(=O)[C@H](C)C[C@H](C)/C=C/C=C/C=C/1C [temsirolimus]
[8]
  Cancer patients who may experience mild grade pulmonary toxicity: 10%

## CO[C@H]1C[C@@H]2CC[C@@H](C)[C@@](O)(O2)C(=O)C(=O)N2CCCC[C@H]2C(=O)O[C@H]([C@H](C)C[C@@H]2CC[C@@H](OCCO)[C@H](OC)C2)CC(=O)[C@H](C)/C=C(\C)[C@@H](O)[C@@H](OC)C(=O)[C@H](C)C[C@H](C)/C=C/C=C/C=C/1C [everolimus]
[8]
  Cancer patients who may experience mild grade pulmonary toxicity: 10%
